Assay results as given in article PMC11874007, “Switching Roles—Exploring Concentration-Dependent Agonistic versus Antagonistic Behavior of Integrin Ligands” (Journal of Medicinal Chemistry, 2025).
Read-outs that look alike come from different tables or passages of the source. Non-standard residues stand in square brackets, D forms with d. Chg = N[C@H](C(=O)O)C1CCCCC1; NMeV = CN[C@H](C(=O)O)C(C)C

Experiments:
αvβ6- OV-MZ-6 cells = test: Cellular uptake of Cy5.5-labeled ligands, OV-MZ-6 control cells; type: cell-based; settings: 1 μM Cy5.5-labeled ligand
Procedure: (§1) For intracellular drug delivery, integrin ligands designed as drug-conjugated vehicles have to be easily and selectively internalized by tumor cells (over)expressing the respective targeted integrin subtype. […] It should be noted here that HN, OV-MZ-6, and RKO cells also express low αvβ3 expression levels.
(§2) Microchamber cell culture slides were coated with fibronectin (2 μg/mL), followed by cell seeding at a density of 50,000 cells/well. After 24 h of cultivation, cells were treated with integrin ligands L1-Cy5.5 to L5-Cy5.5 (1 μM in 0.01% (w/v) CaCl2 and 0.1% (w/v) BSA in PBS; 250 μL/well) for 3, 30, 60, or 300 min at 37 °C. The cells were washed in PBS/0.01% (w/v) CaCl2 (6 × 800 μL) and the fluorescence signal intensity recorded using the LSM 700 microscope (Zeiss, Jena, Germany). CellMask Green Plasma Membrane Stain was used to stain the cell membrane; nuclei were stained with Hoechst 33342.

human α5β1-integrin = target: T1, human α5β1-integrin (Homo sapiens, UniProt P05556+P08648); test: ELISA-type solid-phase binding assay: soluble α5β1 competing for immobilized fibronectin
T1 construct: purchased R&D 3230-A5-050
Procedure: Prior to the biological evaluation of the ligands, their specificity and subtype-selective affinity was analyzed by an ELISA (enzyme-linked immune sorbent assay)-type solid-phase ligand binding assay[59] by measuring the competitive binding of soluble purified integrins in the presence of the respective ligands to plate-immobilized purified ECM proteins, as described in Experimental Section: vitronectin (for αvβ3-directed ligands), fibronectin (for α5β1-directed ligands), or the latency-associated peptide (LAP) of transforming growth factor-β (TGF-β) (for αvβ6-directed ligands). Then, we determined whether Cy5.5 conjugation of ligands led to altered ligand binding affinities and integrin subtype selectivity compared to the unlabeled compounds. In the following, we describe in detail the alterations detected.
(3) 2.0 μg/mL mouse-anti-human CD51/61 (BD Biosciences, Franklin Lakes, New Jersey, USA; #555504). (4) 2.0 μg/mL anti-mouse IgG-POD (Sigma-Aldrich, #A9044-2ML). Integrin αvβ6: (1) 0.4 μg/mL LAP (TGF-β) (R&D, #246-LP-025), (2) 0.5 μg/mL human αvβ6 (R&D, #3817-AV-050), (3) 1:500 dilution mouse-anti-human αv (MAB1978) (Merck Millipore, #MAB1978), (4) 2.0 μg/mL anti-mouse IgG-POD (Sigma-Aldrich, #A9044-2ML). Integrin α5β1: (1) 0.5 μg/mL human fibronectin (Sigma-Aldrich, #F0895-1MG), (2) 2.0 μg/mL human α5β1 (R&D, 3230-A5-050), (3) 1.0 μg/mL mouse-anti-human CD49e (BD Biosciences, #555651), (4) 2.0 μg/mL anti-mouse IgG-POD (Sigma-Aldrich, #A9044-2 ML). For Western blot analysis, the following antibodies were used: (p-)p44/42^(erk-1/2) (1) 1:300 dilution of rabbit-anti-human p44/42^(erk-1/2) antibody (Cell Signaling Technology, Frankfurt, Germany, #9102) in 3% (w/v) bovine serum albumin (BSA)/TBS-T, (2) 1:5,000 dilution goat-anti-rabbit horseradish-conjugated secondary antibody in 1% (w/v) BSA/TBS-T. Phospho-p44/42^(erk-1/2): (1) 1:200 dilution rabbit-anti-human p44/42^(erk-1/2) (Thr202/Tyr204) antibody (Cell Signaling Technology, #9101) in 3% (w/v) BSA/TBS-T, (2) 1:5,000 dilution goat-anti-rabbit horseradish-conjugated secondary antibody in 1% (w/v) BSA/TBS-T. FAK: (1) 1:300 dilution mouse-anti-human FAK antibody (Cell Signaling Technology, #9102) in 3% (w/v) BSA/TBS-T, (2) 1:5,000 dilution goat-anti-mouse horseradish-conjugated secondary antibody in 1% (w/v) BSA/TBS-T. Phospho-FAK: (1) 1:300 dilution mouse-anti-human p-FAK antibody (Cell Signaling Technology) in 3% (w/v) BSA/TBS-T, (2) 1:5,000 dilution goat-antimouse horseradish-conjugated secondary antibody in 1% (w/v) BSA/TBS-T. Differences in blotting efficiency and protein loading were normalized by using a primary antibody against glyceraldehyde-3-phosphate dehydrogenase (GAPDH, 1:10,000 dilution in 1% (w/v) BSA/TBS-T, at RT for 45 min (Millipore, Schwalbach, Germany) and a secondary horseradish-conjugated goat-anti-mouse antibody (1:10,000 dilution in 1% (w/v) BSA/TBS-T, 40 min at RT).
The integrin binding assay was done to assess the specificity and subtype-selective affinity of L1–L5 and their respective Cy5.5-conjugated ligands by using isolated and purified integrins in cell-free ligand binding assays, as previously published.[59]Table 2 summarizes the used ECM ligands, integrins, and antibodies. In brief, flat-bottom 96-well plates were coated overnight at 4 °C with the natural ECM integrin ligands, vitronectin (for αvβ3-directed ligands), fibronectin (for α5β1-directed ligands), or LAP of TGF-β1 (for αvβ6-directed ligands) (100 μL/well in buffer containing 15 mM Na2CO3, 35 mM NaHCO3, pH 9.6). Subsequently, each well was washed in PBS, 0.01% (v/v) Tween 20, 137 mM NaCl, 2.7 mM KCl, 10 mM Na2HPO4, 2 mM KH2PO4, pH 7.4 (PBS-T), and blocked for unspecific binding events for 1 h at RT in 20 mM Tris–HCl, pH 7.5, 150 mM NaCl, 1 mM CaCl2, 1 mM MgCl2, 1 mM MnCl2, and 1% (w/v) BSA. Meanwhile, dilution series of the different integrin ligands and the internal standards were prepared, ranging from 20 μM to 256 pM in 1:5 dilution steps. […]

[1] = tested on: M21 (αvβ3+), HN (αvβ6+), RKO (α5β1+) cells; test: Time-dependent cellular uptake of Cy5.5-labeled ligands in cells overexpressing the targeted integrin; type: cell-based; settings: state within 30 min, Cy5.5-conjugated ligands, target integrin-expressing cells
Excerpt: as §1
(§3) Figure 7 Cellular uptake of Cy5.5-labeled integrin ligands. […] Nuclei were costained with Hoechst 33342 (blue signal) and cell membranes with CellMask Green (green signal). Merge of stains (yellow signal) indicated colocalization of ligands at the cell membrane. Scale bar: 50 μm.
as §2

human αvβ6-integrin [2] = target: T2, human αvβ6-integrin (Homo sapiens, UniProt P06756+P18564); test: ELISA-type solid-phase binding assay: soluble αvβ6 competing for immobilized LAP (TGF-β); settings: competitive ELISA-type assay, referenced to internal standard RTDLDSLRT
T2 construct: purchased R&D 3817-AV-050

human αvβ3-integrin = target: T3, human αvβ3-integrin (Homo sapiens, UniProt P05106+P06756); test: ELISA-type solid-phase binding assay: soluble αvβ3 competing for immobilized vitronectin; settings: competitive ELISA-type assay, referenced to internal standard cilengitide (L2)
T3 construct: purchased R&D 3050-AV-050

[3] = target: human α5β1-integrin (human) (UniProt P08648); test: ELISA; competitive ELISA-type solid-phase assay: human fibronectin (0.5 μg/mL) coated on the plate overnight at 4 °C, soluble human α5β1 (2.0 μg/mL) added with a dilution series of the ligand (20 μM to 256 pM), 1 h at RT; blocked in 20 mM Tris-HCl pH 7.5, 150 mM NaCl, 1 mM CaCl2, 1 mM MgCl2, 1 mM MnCl2, 1% BSA; bound integrin detected with anti-CD49e; IC50 referenced to cilengitide
HN cells (αvβ6+) = test: Time-dependent cellular uptake of Cy5.5-labeled ligands, HN cells; type: cell-based; settings: 1 μM, within 3 min
Excerpt: as §1, §3, §2

human αvβ6-integrin [4] = target: T4, human αvβ6-integrin (human, UniProt P06756 31-1048; P18564 22-709); test: ELISA; competitive ELISA-type solid-phase assay: LAP of TGF-β1 (0.4 μg/mL) coated on the plate overnight at 4 °C, soluble human αvβ6 (0.5 μg/mL) added with a dilution series of the ligand (20 μM to 256 pM), 1 h at RT; blocked in 20 mM Tris-HCl pH 7.5, 150 mM NaCl, 1 mM CaCl2, 1 mM MgCl2, 1 mM MnCl2, 1% BSA; bound integrin detected with anti-αv; IC50 referenced to …; settings: both partners purified
T4 construct: integrin alpha-V, human, chain of the soluble purified αvβ6 heterodimer; integrin beta-6, human, chain of the soluble purified αvβ6 heterodimer; also called integrin αvβ6; source: bought: R&D, #3817-AV-050

[5] = target: human α5β1-integrin (human) (UniProt P08648)
[6] = competitive ELISA-type assay, referenced to internal standard cilengitide (L2)

CN1/C(=C/C=C/C=C/C2=[N+](CCCCCC(=O)NCCCCCC(=O)N[C@@H](CCCCNC(=O)[C@@H]3CCC(=O)N[C@@H](CCCNC(=N)N)C(=O)NCC(=O)N[C@@H](CC(=O)O)C(=O)N[C@@H](C4CCCCC4)C(=O)N3)C(N)=O)c3ccc4ccccc4c3C2(C)C)C(C)(C)c2c1ccc1ccccc21 [L4-Cy5.5] was tested, and the “Binding / intracellular uptake in control cells” value (“Binding / intracellular uptake” for short) (αvβ6- OV-MZ-6 cells) was “did not bind” and the IC50 (human α5β1-integrin) was over 1000 nM.

With c(RGD-Chg-isoE)-CONH2 [L4] the “Endocytosis of Cy5.5-conjugated ligand” value [1] was “already completed”.

With Cc1cc(OCCCNC(=O)CCCCCNC(=O)CCCCC[N+]2=C(/C=C/C=C/C=C3/N(C)c4ccc5ccccc5c4C3(C)C)C(C)(C)c3c2ccc2ccccc32)cc(C)c1C(=O)N[C@@H](CNC(=O)CNC(=O)c1cccc(NC(=N)N)c1)C(=O)O [L5-Cy5.5] the IC50 (human αvβ6-integrin [2]) was 154 ± 136 nM, the IC50 (human αvβ3-integrin) was over 1000 nM and the IC50 (human α5β1-integrin; [6]) was 4.69 ± 1 nM.

“L4-Cy5.5, the Cy5.5 conjugate of c(RGD-Chg-isoE)-CONH2 (L4) (peptide)” was tested, and the IC50 [3] was over 1000 nM.

With COc1ccnc(NCCCOc2ccc(C[C@@H](CC(=O)O)NC(=O)c3ccc(OCCCNC(=O)CCCCCNC(=O)CCCCC[N+]4=C(/C=C/C=C/C=C5/N(C)c6ccc7ccccc7c6C5(C)C)C(C)(C)c5c4ccc4ccccc54)cc3)cc2)c1 [L1-Cy5.5] the IC50 (human αvβ6-integrin [2]) was over 1000 nM, the “Binding / intracellular uptake” value (αvβ6- OV-MZ-6 cells) was “only minor intracellular traces” and the IC50 (human αvβ3-integrin) was 1.02 ± 0.02 nM. It also gave an IC50 (human α5β1-integrin; [6]) of over 1000 nM.

“L3-Cy5.5, the Cy5.5 conjugate of c(FRGDLAFp(NMe)K) (L3) (peptide)” showed an IC50 [3] of over 1000 nM.

With CC(C)C[C@@H]1NC(=O)[C@H](CC(=O)O)NC(=O)CNC(=O)[C@H](CCCNC(=N)N)NC(=O)[C@H](Cc2ccccc2)NC(=O)[C@H](CCCCNC(=O)CCCCCNC(=O)CCCCC[N+]2=C(/C=C/C=C/C=C3/N(C)c4ccc5ccccc5c4C3(C)C)C(C)(C)c3c2ccc2ccccc32)N(C)C(=O)[C@H]2CCCN2C(=O)[C@H](Cc2ccccc2)NC(=O)[C@H](C)NC1=O [L3-Cy5.5] the “Binding / intracellular uptake” value (αvβ6- OV-MZ-6 cells) was “did not bind”, the IC50 (human α5β1-integrin; [6]) was over 1000 nM and the “Localization of Cy5.5-labeled ligand” value (HN cells (αvβ6+)) was “already intracellularly visible”.

B1: L4-Cy5.5, the Cy5.5 conjugate of c(RGD-Chg-isoE)-CONH2 (L4) (peptide)
chain: cyclo(RGD[Chg][isoE])
modifications: not fully specified (C-terminus); printed as c(RGD-Chg-isoE)-CONH2; also: Cy5.5 attached via Ahx linker, site not given here
For B1, the IC50 (human αvβ6-integrin [4]) was 7.63 ± 0.83 nM.

B2: cilengitide, c(RGDf(NMe)V) (L2) (peptide)
peptide: cyclo(RGD[dF][NMeV])
For B2, the p-FAK level by Western blot in OV-MZ-6 cells (low αvβ3, α5β1+) with 1 nM cilengitide, 5 to 60 min [5] was 2.2 fold.
